Data taken from patent publication US9233237B2, “Apparatus and method for periodic fluid-delivery/fluid-removal cycles in the cranial subarachnoid space to treat cerebral cortical disorders” (NEW YORK UNIVERSITY, priority 2010, dated 2016).

System: monkey
Assay: EEG effects of drugs delivered through the implanted subdural/subarachnoid sheet body in a monkey
Assay type: in vivo
Settings: acetylcholine-induced EEG seizure, delivery through the sheet body over right frontal cortex (FIG. 8)
Description: In this experiment, drugs with known pharmacological actions were delivered through the sheet body 102 to test whether the inlet and outlet ports 112, 114 were clogged or obstructed, with the effects of the administered drugs monitored via EEG electrode contacts 113 integrated into the sheet body 102. The experiment was performed in a monkey approximately three months after the implantation of the sheet body 102 over the animal's right frontal cortex and the implantation of the control unit 130. During this post-surgical period, the delivery fluid was saline. On the day of this experiment, the mini-pump was temporarily modified to deliver a seizure-inducing agent (acetylcholine) through the sheet body 102, followed by a delivery of an antiepileptic drug (muscimol) through the same route. Traces 1 to 3 of FIG. 6 represent EEG recordings obtained with the EEG electrodes integrated into the subarachnoid sheet (ipsilateral recording channels 1, 2 and 3). The fourth trace of FIG. 6 was obtained from a subdural/subarachnoid electrode placed, during device implantation, in the left-side frontal cortex (contralateral recording channel).

## NCc1cc(=O)[nH]o1 [muscimol]
  time to stop of EEG seizure after delivery: ≤ 2 min
